Test results: US20060217395A1, “Combinations of paroxetine and 4- (s) - (4-acetyl-piperazin-1-yl) -2- (r)- (4-fluoro-2-methyl- phenyl -piperidine-1-carboxylic acid [1- (r) (3,5-bis-trifluoromethyl-phenyl) -ethyl] methylamide for treatment of depression and / or anxiety” (GLAXO GROUP LIMITED, priority 2003, published 2006)
Structures can show the parent of a compound that is named as a salt.

Test system: mongolian gerbils
Assay: gerbil social interaction model (social stress assay)
Type: in vivo
Conditions: one hour after administration
Method: Paroxetine hydrochloride hemihydrate (0.03 mg/kg p.o of the paroxetine measured as the free base), 4-(S)-(4-Acetyl-piperazin-1-yl)-2-(R)-(4-fluoro-2-methyl-phenyl)-piperidine-1-carboxylic acid [1-(R)-(3,5-bis-trifluoromethyl-phenyl)-ethyl]-methylamide methansulphonate (hereinafter compound A) (0.03 mg/kg i.p of the compound A measured as the free base) and a combination of paroxetine (0.03 mg/kg p.o. of the paroxetine measured as the free base) and compound A (0.03 mg/kg i.p. of the compound A measured as the free base) were administered independently in mongolian gerbils to assess the effect on time spent in active social interactions.
The results obtained one hour after administration, expressed as a percentage variation of the time spent in active social interactions by each animal in respect to the value obtained by treatment of control animals, are summarised in table 1.

SMILES	% variation of the time spent in active social interactions in respect to control animals (0.03 mg/kg i.p. (measured as the free base)) [%]	% variation of the time spent in active social interactions in respect to control animals (0.03 mg/kg p.o. (measured as the free base)) [%]
CC(=O)N1CCN([C@H]2CCN(C(=O)N(C)[C@H](C)c3cc(C(F)(F)F)cc(C(F)(F)F)c3)[C@@H](c3ccc(F)cc3C)C2)CC1.CS(=O)(=O)O [Compound A, 4-(S)-(4-Acetyl-piperazin-1-yl)-2-(R)-(4-fluoro-2-methyl-phenyl)-piperidine-1-carboxylic acid [1-(R)-(3,5-bis-trifluoromethyl-phenyl)-ethyl]-methylamide methansulphonate]	20.7	–
Fc1ccc([C@@H]2CCNC[C@H]2COc2ccc3c(c2)OCO3)cc1 [Paroxetine hydrochloride hemihydrate, (−)trans-4-(4′-fluorophenyl)3-(3′-4′-methylenedioxyphenoxymethyl) piperidine]	–	−2.4
